How the values were obtained:
[1] = system: gel-filtered platelets; experiment: Platelet aggregation (nephelometric aggregometry); format: cell-based, human
Protocol: Venous blood, anticoagulated with 1-mM trisodium citrate, was obtained from volunteers who had not consumed acetylsalicylic acid for at least ten days. Platelet-rich plasma (PRP) was prepared by centrifugation at 150 g for ten minutes at 25° C. Platelet counts were determined with a Coulter counter (model ZM; Coulter Electronics, Hialeah, Fla.).
Platelets were gel-filtered on a 4× 10 cm column of Sepharose 2B in Tyrode's Hepes buffer as described previously (Hawiger et al., Nature 2831:195–198 (1980), herein incorporated by reference). Platelets were typically suspended at a concentration of 1.5×10^8/ml and were used within 30 minutes of preparation. Platelet aggregation was monitored using a standard nephelometric technique (Born, et al., J. Physiol. 168:178–195 (1963), herein incorporated by reference), in which 0.3-ml aliquots of gel-filtered platelets were incubated at 37° C. and stirred at 1000 rpm in a PAP-4 aggregometer (Biodata, Hatboro, Pa.). Gel-filtered platelets were preincubated with t-PA or S—NO-t-PA for up to 45 minutes and aggregations induced with 5 μM ADP or 0.025 U/ml thrombin.
Aggregations were quantified by measuring the maximal rate or extent of light transmittance and expressed as a normalized value relative to control aggregations.
The effect of S-nitroso-BSA on platelet aggregation was studied, using a gel-filtered platelet preparation, as previously described (Hawiger et al., Nature 2831:195 (1980)) and suspended at 150,000 platelets/ul in HEPES buffer, pH 7.35. S—NO-BSA was incubated with platelets for ten minutes at 37° C. in a PAP-4 aggregometer (BioData, Hatboro, Pa.), after which aggregations were induced with 5 μM ADP. Aggregations were quantified by measuring the extent of change of light transmittance and expressed as a normalized value relative to control aggregations.

[2] = system: endothelium-denuded rabbit aortic strips; experiment: Vessel relaxation bioassay; format: cell-based
Protocol: New Zealand White female rabbits weighing 3–4 kg were anesthetized with 30 mg/kg IV sodium pentobarbital. Descending thoracic aortae were isolated and placed immediately in a cold physiologic salt solution (Kreb's) (mM): NaCl, 118; CKl, 4.7; CaCl2, 2.5; MgSO4, 1.2; KH2PO4, 1.2; NaHCO3, 12.5; and D-glucose, 11.0. The vessels were cleaned of adherent connective tissue, and the endothelium removed by gentle rubbing with a cotton tipped applicator inserted into the lumen, after which the vessel was cut into 5 mm rings. The rings were mounted on stirrups and connected to transducers (model FT03C Grass Instruments, Quincy, Mass.) by which changes in isometric tension were recorded.
Samples were added to a standard bioassay in which vessel rings were suspended in glass chambers containing seven mil of oxygenated Kreb's buffer, in a standard bioassay (Cook et al., Am. J. Physiol. 28:H804 (1989), herein incorporated by reference). Sustained contractions, to 2 gm tension, were induced with 1 μM epinephrine, after which the effects of t-PA and S—NO-t-PA were tested. In certain experiments the guanylate cyclase inhibitor, methylene blue, was preincubated with vessel rings for 15 minutes prior to initiation of contractions.
The vasodilatory actions of S-nitroso-BSA were examined in a standard bioassay containing endothelium-denuded rabbit aortic strips in Kreb's buffer, pH 7.5, at 37°, as described in Example 6.
In vessel experiments, relaxations to S—NO-BSA are expressed as-percent of tone induced by 1.0 μM norepinephrine.

[3] = biological target: hemoglobin (Bos taurus, UniProt P01966+P02070); conditions: for reaction at the redox metal (iron-binding site) of hemoglobin: UV spectrum, SNOAC over 15 minutes
[4] = system: gel-filtered platelets; experiment: Platelet aggregation (nephelometric aggregometry); format: cell-based, human; remark: listed apart in the source
[5] = system: RFL-6 lung fibroblasts containing a soluble guanylate cyclase; experiment: Cyclic GMP in cultured RFL-6 lung fibroblasts; format: cell-based
Protocol: Consonant with the mechanism of other nitro(so)-vasodilators (Ignarro, L. J. Circ. Res. 65:1 (1989)), relaxations were abolished by methylene blue, an inhibitor of guanylate cyclase (FIG. 11a). This mechanism was confirmed by showing that S-nitroso-BSA (18 μM) induces 3.5-fold increases (n=2) in cyclic GMP over basal levels relative to BSA alone in cultured RFL-6 lung fibroblasts containing a soluble guanylate cyclase exquisitely sensitive to NO (Forstermann et al., Mol. Pharmacol. 38:7 (1990)). Stimulation of guanylate cyclase by S-nitroso-BSA was attenuated by methylene blue.

[6] = Infusion into anesthetized dogs (blood pressure, coronary flow); format: in vivo, dog
Description: (§1) These extremely potent, but reversible anti-platelet properties in vivo are unmatched by classic nitrates. […] As shown in FIGS. 12–14, the constellation of anti-platelet effect, long duration of action, and increased coronary blood flow, is unmatched by other nitroso-compounds. Thus, S-nitroso-proteins have very unique hemodynamic and bioactive profiles.

[7] = Canine model of subtotal coronary artery occlusion; format: in vivo, dog
Description: as §1

[8] = system: trachea rings; experiment: Airway smooth muscle relaxation, trachea rings; format: cell-based, guinea pig
Description: (§2) Male Hartley guinea pigs (500–600 g) were anesthetized by inhalation of enflurane to achieve a surgical plane of anesthesia. The trachea were excised and placed in Kreb's-Hanseleit buffer (mM); NaCl 118, KCl 5.4, NaH2PO4 1.01, glucose 11.1, NaHCO3 25.0, MgSO4 0.69, CaCl 2.32, pH 7.4. The airways were then dissected free from surrounding fat and connective tissue and cut into rings 2–4 mm in diameter. The trachea rings were placed in sterile Medium 199 containing 1% antibiotic/antimycotic mixture in an atmosphere of 5% CO2, […], 55% N2 and kept for up to 48 hours in tissue culture. The experiments were also performed on human airways isolated by the same method.
(§3) Trachea rings were mounted on stirrups and connected to transducers (model FTO3C Grass), by which changes in isometric tension were measured. Rings were then suspended in 10 cc of oxygenated (95% O2, 5% CO2) buffer. Airway rings were equilibrated for 60 minutes under a load of 1 gm and then primed twice by exposure to 100 μM methacholine. The rings were contracted with various agonists at concentrations determined to generate 50% (±16% S.D.) of maximum tone, after which the effect of S—NO-BSA was assessed. In selected experiments, relaxation responses were determined in the presence of hemoglobin, or after rings had been preexposed to methylene blue for 30 minutes.

[9] = system: human airways; experiment: Bronchodilatory effect in human airways contracted with methacholine; format: cell-based
Description: as §2, §3
(§4) The effect of guanylate cyclase inhibitors upon S-nitroso-protein-induced airway relaxation and cGMP increase was assessed, using the previously described bioassay and cyclic nucleotide assay procedures. The bronchodilatory effect of S-nitroso-albumin was examined in human airways (5–12 mm outer diameter).

[10] = system: human airways; experiment: Airway cGMP levels; format: cell-based; conditions: 100 μM
Protocol: as §4

[11] = Stability of S-nitroso-albumin in the presence of oxygen and redox metals; format: physicochemical; conditions: Cu^+, Fe^2+, or Cu^2+ (50 μM) or defuroxamine or EDTA (10 μM)
Protocol: The stability of S-nitroso-albumin in the presence of oxygen and redox metals was assessed.
In addition, S-nitroso-protein stability was assessed in the presence of various redox metals or chelating agents.

[12] = Hemoglobin-oxygen association curve; conditions: S-nitrosylation of hemoglobin
Description: Thus, the reaction between S-nitrosothiols and hemoglobin not only eliminates the inhibition of oxygen binding which occurs from the reaction with uncharged NO and generation of methemoglobin, but it actually increases oxygen binding.

[13] = clinically used comparator; cited from earlier work
[14] = acidified NaNO2, NO gas or EDRF from endothelial cells

Sequence of hemoglobin (P01966 2-142): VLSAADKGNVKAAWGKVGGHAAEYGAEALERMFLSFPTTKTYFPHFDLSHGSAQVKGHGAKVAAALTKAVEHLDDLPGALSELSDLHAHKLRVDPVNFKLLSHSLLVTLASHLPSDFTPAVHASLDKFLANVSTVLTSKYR
Sequence of hemoglobin (P02070 whole entry): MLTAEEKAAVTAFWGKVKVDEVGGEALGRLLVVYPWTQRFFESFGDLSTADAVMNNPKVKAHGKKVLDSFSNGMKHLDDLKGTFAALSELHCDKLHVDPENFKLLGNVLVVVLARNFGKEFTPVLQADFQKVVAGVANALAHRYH

Molecule: [N]=O [NO, nitric oxide, reference compound]
- normalized extent of aggregation ([1]; NO generated from NaNO2 (150 nM), n=5): 0.98±0.11
- effect on the extent of platelet aggregation ([1]; NOx generated from NaNO2): no significant effect
- % Relaxation ([2]; 150 nM, contraction with 1 μM epinephrine, mean ±S.D., n=4): 1.0 ± 1.7%
- reaction at the redox metal (iron-binding site) of hemoglobin [3]: reacted instantaneously

Molecule: O=N[O-].[Na+] [NaNO2, Sodium nitrite, reference compound]
- effect on vessel tone (sentence negated: neither ... had) ([2]; concentrations up to 15 μM): any significant effect
- effect on platelet aggregation (sentence negated: neither ... had) ([4]; concentrations up to 15 μM): any significant effect

Molecule: CC(=O)N[C@@H](CSN=O)C(=O)O [SNOAC, S-nitroso-N-acetylcysteine]
- reaction at the redox metal (iron-binding site) of hemoglobin [3]: no reaction

Molecule: NO-BSA: BSA loaded with NO at a ratio of 20:1 in 0.5 N HCl (Example 14)
- vessel relaxation with increasing concentrations of NO loaded ([2]; BSA loaded with NO as in Example 14): increase in vessel relaxation

Molecule: S-nitroso-BSA: S-nitrosylated bovine serum albumin
- platelet inhibitory potency by method of synthesis [1, 14]: essentially equipotent
- vasorelaxant potency by method of synthesis [2, 14]: essentially equipotent
- character of relaxation response ([2]; compared with EDRF, NO, low molecular weight S-nitrosothiols): less rapid, but much more persistent, relaxation response
- increases in cyclic GMP over basal levels relative to BSA alone ([5]; 18 μM, n=2): 3.5 fold
- stimulation of guanylate cyclase in presence of methylene blue ([5]; methylene blue): attenuated
- blood pressure [6]: prolonged decreases in blood pressure
- coronary flow [6]: increased coronary flow
- bleeding times [7]: significantly prolonged
- platelet-dependent cyclic thrombus formation [7]: inhibited
- relaxation of airway smooth muscle ([8]; 0.01 μM): 50%
- relaxation of airway smooth muscle ([8]; 10 μM): over 75%
- platelet inhibitory effect in platelet-rich plasma and whole blood ([4]; 1.4 μM, impedance aggregometry for whole blood): confirmed

Molecule: S-nitroso-albumin: S-nitrosylated albumin used in Examples 17 and 18; likely the same as S-nitroso-BSA
- effect of hemoglobin on airway relaxation ([9]; hemoglobin (100 μM)): little effect
- airway relaxation in presence of methylene blue or LY83583 ([9]; methylene blue (10^−4) or LY83583 (5×10^−5)): not significantly inhibited
- IC50 ([9]; rings contracted with methacholine (7 μM), read-out: IC50 of airway relaxation): 22 µM
- airway cGMP levels [10]: increases over control
- decomposition in presence of redox metals or chelating agents [11]: resistant to decomposition

Molecule: S-nitroso-hemoglobin: derived from the nitrosylation of hemoglobin
- hemoglobin-oxygen association curve [12]: leftward shift
- formation of methemoglobin [3]: does not result in the formation of methemoglobin

Molecule: nitroprusside
- effect on coronary flow [13]: deleterious effects on coronary flow

Source: patent US7033999B2, “Nitrosated and nitrosylated heme proteins” (Brigham and Women's Hospital, priority 1991, dated 2006)
